Laboratory results from patent US6559101B2, “N- (5, 7-dimethoxy [1, 2, 4] triazolo [1, 5-a] pyrimidin-2-yl) arylsulfonamide compounds and their use as herbicides” (Dow AgroSciences LLC, priority 2000, dated 2003).

What was measured:
Assay type in all cases: in vivo
[1] = test system: giant foxtail (Setaria faberi); experiment: Preemergence herbicidal activity; conditions: scored after 3 weeks, 0 no injury, 100 complete kill or no germination
Method: (§1) The soil matrix was contained in plastic pots with a surface area of 161 square centimeters. When required to ensure good germination and healthy plants, a fungicide treatment and/or other chemical or physical treatment was applied. A weighed amount, determined by the highest rate to be tested, of each test compound was placed in a 20 mL glass vial and was dissolved in 8 mL of a 97:3 v/v (volume/volume) mixture of acetone and dimethyl sulfoxide to obtain concentrated stock solutions. […] The stock solutions obtained were diluted with a 99.9:0.1 mixture of water and Tween® 155 surfactant (ethoxylated sorbitan fatty acid ester) to obtain application solutions of known concentration. The solutions containing the highest concentration to be tested were prepared by diluting 4 mL aliquots of the stock solution with 8.5 mL of the mixture and lower concentrations were prepared by dilution of appropriate smaller portions of the stock solution. A 2.5 mL aliquot of each solution of known concentration was sprayed evenly onto the soil of each seeded pot using a Cornwall 5.0 mL glass syringe fitted with a TeeJet TN-3 hollow cone nozzle to obtain thorough coverage of the soil in each pot. Control pots were sprayed in the same manner with the aqueous mixture. A highest application rate of 4.48 kg/ha is achieved when 50 mg of test compound is employed. The treated pots and control pots were placed in a greenhouse with an approximately 15 hr photoperiod which was maintained at about 23-29° C. during the day and 22-28° C. during the night. Nutrients and water were added on a regular basis and supplemental lighting was provided with overhead metal halide 1000 Watt lamps as necessary. The water was added by top-irrigation. After 3 weeks the condition of the test plants that germinated and grew as compared with that of the untreated plants that germinated and grew was determined visually and scored on a scale of 0 to 100 percent where 0 corresponds to no injury and 100 corresponds to complete kill or no germination.

[2] = test system: morningglory (Ipomoea hederacea); experiment: Preemergence herbicidal activity; conditions: scored after 3 weeks, 0 no injury, 100 complete kill or no germination
Method: as §1

[3] = test system: wild poinsettia (Euphorbia heterophylla); experiment: Preemergence herbicidal activity; conditions: scored after 3 weeks, 0 no injury, 100 complete kill or no germination
Method: as §1

[4] = test system: pigweed (Amaranthus retroflexus); experiment: Preemergence herbicidal activity; conditions: scored after 3 weeks, 0 no injury, 100 complete kill or no germination
Method: as §1

[5] = test system: velvetleaf (Abutilion theophrasti); experiment: Preemergence herbicidal activity; conditions: scored after 3 weeks, 0 no injury, 100 complete kill or no germination
Method: as §1

[6] = test system: wild oats (Avena fatua); experiment: Preemergence herbicidal activity; conditions: scored after 3 weeks, 0 no injury, 100 complete kill or no germination
Method: as §1

[7] = test system: crabgrass (Digitaria sanguinalis); experiment: Preemergence herbicidal activity; conditions: scored after 3 weeks, 0 no injury, 100 complete kill or no germination
Method: as §1

[8] = test system: cocklebur (Xanthium strumarium); experiment: Preemergence herbicidal activity; conditions: scored after 3 weeks, 0 no injury, 100 complete kill or no germination
Method: as §1

[9] = test system: barnyardgrass (Echinochloa crus-galli); experiment: Preemergence herbicidal activity; conditions: scored after 3 weeks, 0 no injury, 100 complete kill or no germination
Method: as §1

[10] = test system: Rox orange sorghum (Sorghum bicolor); experiment: Preemergence herbicidal activity; conditions: scored after 3 weeks, 0 no injury, 100 complete kill or no germination
Method: as §1

[11] = test system: blackgrass (Alopecurus myosuroides); experiment: Preemergence herbicidal activity; conditions: scored after 3 weeks, 0 no injury, 100 complete kill or no germination
Method: as §1

[12] = test system: viola (Viola tricolor); experiment: Postemergence herbicidal activity; conditions: scored after 2 weeks, 0 no injury, 100 complete kill
Method: (§2) Seeds of the desired test plant species were planted in Grace-Sierra MetroMix® 306 planting mixture, which typically has a pH of 6.0 to 6.8 and an organic matter content of about 30 percent, in plastic pots with a surface area of 64 square centimeters. When required to ensure good germination and healthy plants, a fungicide treatment and/or other chemical or physical treatment was applied. The plants were grown for 7-21 days in a greenhouse with an approximately 15 hr photoperiod which was maintained at about 23-29° C. during the day and 22-28° C. during the night. Nutrients and water were added on a regular basis and supplemental lighting was provided with overhead metal halide 1000 Watt lamps as necessary. The plants were employed for testing when they reached the first or second true leaf stage. A weighed amount of each test compound, determined by the highest rate to be tested, was placed in a 20 mL glass vial and was dissolved in 4 mL of a 97:3 v/v (volume/volume) mixture of acetone and dimethyl sulfoxide to obtain concentrated stock solutions. […] The concentrated stock solutions obtained were diluted with an aqueous mixture containing acetone, water, iso-propyl alcohol, dimethyl sulfoxide, Atplus 411F crop oil concentrate, and Triton X-155 surfactant (methylenebisdiamyl phenoxy polyethoxy ethanol) in a 48.5:39:10:1.5:1.0:0.02 v/v ratio to obtain spray solutions of known concentration. The solutions containing the highest concentration to be tested were prepared by diluting 2 mL aliquots of the stock solution with 13 mL of the mixture and lower concentrations were prepared by dilution of appropriate smaller portions of the stock solution. Approximately 1.5 mL aliquots of each solution of known concentration were sprayed evenly onto each of the test plant pots using a Devilbiss atomizer driven by compressed air pressure of 2 to 4 psi (140 to 280 kiloPascals) to obtain thorough coverage of each plant. Control plants were sprayed in the same manner with the aqueous mixture. In this test an application rate of 1 ppm results in the application of approximately 1 g/ha. The treated plants and control plants were placed in a greenhouse as described above and watered by sub-irrigation to prevent wash-off of the test compounds. After 2 weeks the condition of the test plants as compared with that of the untreated plants was determined visually and scored on a scale of 0 to 100 percent where 0 corresponds to no injury and 100 corresponds to complete kill.

[13] = test system: giant foxtail (Setaria faberi); experiment: Postemergence herbicidal activity; conditions: scored after 2 weeks, 0 no injury, 100 complete kill
Method: as §2

[14] = test system: morningglory (Ipomoea hederacea); experiment: Postemergence herbicidal activity; conditions: scored after 2 weeks, 0 no injury, 100 complete kill
Method: as §2

[15] = test system: pigweed (Amaranthus retroflexus); experiment: Postemergence herbicidal activity; conditions: scored after 2 weeks, 0 no injury, 100 complete kill
Method: as §2

[16] = test system: velvetleaf (Abutilion theophrasti); experiment: Postemergence herbicidal activity; conditions: scored after 2 weeks, 0 no injury, 100 complete kill
Method: as §2

[17] = test system: wild oats (Avena fatua); experiment: Postemergence herbicidal activity; conditions: scored after 2 weeks, 0 no injury, 100 complete kill
Method: as §2

[18] = test system: cocklebur (Xanthium strumarium); experiment: Postemergence herbicidal activity; conditions: scored after 2 weeks, 0 no injury, 100 complete kill
Method: as §2

[19] = test system: wild buckwheat (Polygonum convolvulus); experiment: Postemergence herbicidal activity; conditions: scored after 2 weeks, 0 no injury, 100 complete kill
Method: as §2

[20] = test system: chickweed (Stellaria media); experiment: Postemergence herbicidal activity; conditions: scored after 2 weeks, 0 no injury, 100 complete kill
Method: as §2

[21] = test system: Rox orange sorghum (Sorghum bicolor); experiment: Postemergence herbicidal activity; conditions: scored after 2 weeks, 0 no injury, 100 complete kill
Method: as §2

[22] = test system: blackgrass (Alopecurus myosuroides); experiment: Postemergence herbicidal activity; conditions: scored after 2 weeks, 0 no injury, 100 complete kill
Method: as §2

[23] = test system: lambsquarters (Chenopodium album); experiment: Postemergence herbicidal activity; conditions: scored after 2 weeks, 0 no injury, 100 complete kill
Method: as §2

COc1cc(OC)n2nc(NS(=O)(=O)c3c(OC)cccc3C(F)(F)F)nc2n1 [Compound 4]
Preemergence herbicidal activity SETFA ([1]; 17.5 g/Ha): 99% | Preemergence herbicidal activity IPOHE ([2]; 17.5 g/Ha): 98% | Preemergence herbicidal activity EPHHL ([3]; 17.5 g/Ha): 98% | Preemergence herbicidal activity AMARE ([4]; 17.5 g/Ha): 99% | Preemergence herbicidal activity ABUTH ([5]; 17.5 g/Ha): 98% | Preemergence herbicidal activity AVEFA ([6]; 17.5 g/Ha): 100% | Preemergence herbicidal activity DIGSA ([7]; 17.5 g/Ha): 100% | Preemergence herbicidal activity XANST ([8]; 17.5 g/Ha): 85% | Preemergence herbicidal activity ECHCG ([9]; 17.5 g/Ha): 100% | Preemergence herbicidal activity SORBI ([10]; 17.5 g/Ha): 100% | Preemergence herbicidal activity ALOMY ([11]; 17.5 g/Ha): 100% | Postemergence herbicidal activity VIOTR ([12]; 3.9 ppm): 90% | Postemergence herbicidal activity SETFA ([13]; 3.9 ppm): 100% | Postemergence herbicidal activity IPOHE ([14]; 3.9 ppm): 90% | Postemergence herbicidal activity AMARE ([15]; 3.9 ppm): 100% | Postemergence herbicidal activity ABUTH ([16]; 3.9 ppm): 95% | Postemergence herbicidal activity AVEFA ([17]; 3.9 ppm): 98% | Postemergence herbicidal activity XANST ([18]; 3.9 ppm): 70% | Postemergence herbicidal activity POLCO ([19]; 3.9 ppm): 95% | Postemergence herbicidal activity STEME ([20]; 3.9 ppm): 99% | Postemergence herbicidal activity SORBI ([21]; 3.9 ppm): 95% | Postemergence herbicidal activity ALOMY ([22]; 3.9 ppm): 95% | Postemergence herbicidal activity CHEAL ([23]; 3.9 ppm): 95%

COc1cc(OC)n2nc(NS(=O)(=O)c3cc(Cl)ccc3OC)nc2n1 [Compound 5]
Preemergence herbicidal activity SETFA ([1]; 70 g/Ha): 98% | Preemergence herbicidal activity IPOHE ([2]; 70 g/Ha): 75% | Preemergence herbicidal activity EPHHL ([3]; 70 g/Ha): 90% | Preemergence herbicidal activity AMARE ([4]; 70 g/Ha): 99% | Preemergence herbicidal activity ABUTH ([5]; 70 g/Ha): 95% | Preemergence herbicidal activity AVEFA ([6]; 70 g/Ha): 99% | Preemergence herbicidal activity DIGSA ([7]; 70 g/Ha): 99% | Preemergence herbicidal activity XANST ([8]; 70 g/Ha): 85% | Preemergence herbicidal activity ECHCG ([9]; 70 g/Ha): 98% | Preemergence herbicidal activity SORBI ([10]; 70 g/Ha): 95% | Preemergence herbicidal activity ALOMY ([11]; 70 g/Ha): 100% | Postemergence herbicidal activity VIOTR ([12]; 62.5 ppm): 90% | Postemergence herbicidal activity SETFA ([13]; 62.5 ppm): 98% | Postemergence herbicidal activity IPOHE ([14]; 62.5 ppm): 80% | Postemergence herbicidal activity AMARE ([15]; 62.5 ppm): 100% | Postemergence herbicidal activity ABUTH ([16]; 62.5 ppm): 98% | Postemergence herbicidal activity AVEFA ([17]; 62.5 ppm): 99% | Postemergence herbicidal activity XANST ([18]; 62.5 ppm): 100% | Postemergence herbicidal activity POLCO ([19]; 62.5 ppm): 98% | Postemergence herbicidal activity STEME ([20]; 62.5 ppm): 98% | Postemergence herbicidal activity SORBI ([21]; 62.5 ppm): 100% | Postemergence herbicidal activity ALOMY ([22]; 62.5 ppm): 95% | Postemergence herbicidal activity CHEAL ([23]; 62.5 ppm): 95%

COC(=O)c1cccc(OC)c1S(=O)(=O)Nc1nc2nc(OC)cc(OC)n2n1 [Compound 7]
Preemergence herbicidal activity SETFA ([1]; 70 g/Ha): 100% | Preemergence herbicidal activity IPOHE ([2]; 70 g/Ha): 10% | Preemergence herbicidal activity EPHHL ([3]; 70 g/Ha): 20% | Preemergence herbicidal activity AMARE ([4]; 70 g/Ha): 100% | Preemergence herbicidal activity ABUTH ([5]; 70 g/Ha): 0% | Preemergence herbicidal activity AVEFA ([6]; 70 g/Ha): 70% | Preemergence herbicidal activity DIGSA ([7]; 70 g/Ha): 40% | Preemergence herbicidal activity XANST ([8]; 70 g/Ha): 0% | Preemergence herbicidal activity ECHCG ([9]; 70 g/Ha): 20% | Preemergence herbicidal activity SORBI ([10]; 70 g/Ha): 95% | Preemergence herbicidal activity ALOMY ([11]; 70 g/Ha): 100% | Postemergence herbicidal activity VIOTR ([12]; 62.5 ppm): 80% | Postemergence herbicidal activity SETFA ([13]; 62.5 ppm): 95% | Postemergence herbicidal activity IPOHE ([14]; 62.5 ppm): 80% | Postemergence herbicidal activity AMARE ([15]; 62.5 ppm): 95% | Postemergence herbicidal activity ABUTH ([16]; 62.5 ppm): 70% | Postemergence herbicidal activity AVEFA ([17]; 62.5 ppm): 90% | Postemergence herbicidal activity XANST ([18]; 62.5 ppm): 40% | Postemergence herbicidal activity POLCO ([19]; 62.5 ppm): 85% | Postemergence herbicidal activity STEME ([20]; 62.5 ppm): 90% | Postemergence herbicidal activity SORBI ([21]; 62.5 ppm): 80% | Postemergence herbicidal activity ALOMY ([22]; 62.5 ppm): 95%
